Results: patent US12514806B2, “Cosmetic composition comprising ceramides and sphingolipid” (Croda Korea Ltd, priority 2022, dated 2026)

Experiments:
Assay type in all cases: cell-based
aquaporin 3 = assay: Aquaporin 3 expression in 3D skin model by immunofluorescence; settings: Experimental Example 4; creams including 0.01% and 0.1% of EOP on 3D skin model; compared to control; concentration-dependent; FIGS. 11-12
Method: (§1) To verify the difference in skin moisturizing according to a ceramide content ratio, each of the creams of Examples 1 to 16 was applied to 3D skin model (EPI-201) manufactured by MatTek, and then the expression of aquaporin 3 and filaggrin was examined.
(§2) Aquaporin 3 expression and filaggrin expression were analyzed by immunofluorescence. Specifically, after the 3D skin model was treated with each of the creams of Examples 1 to 16, the 3D skin model was incubated for 48 hours, and then each cream was washed out with PBS. The 3D skin model was put into a cassette and fixed with 10% formalin, and then made into a paraffin block through dehydration, transparency, penetration, and embedding processes. For deparaffinization, slides were prepared by sectioning to 3 μm, and then paraffin was melted in a dry oven at 60° C. for 30 minutes. […] After DAPI mounting, the slides were observed using a fluorescence microscope, and the results thereof are illustrated in FIGS. 1 to 4. […]
(§3) The moisturizing and barrier factors were analyzed by immunofluorescence in the same manner as in Experimental Example 1, and the results thereof are illustrated in FIGS. 11 and 12. […]
(§4) The moisturizing factors were analyzed by immunofluorescence in the same manner as in Experimental Example 1, and the results thereof are illustrated in FIGS. 15 to 18.

filaggrin = assay: Filaggrin expression in 3D skin model by immunofluorescence; settings: Experimental Example 4; creams including 0.01% and 0.1% of EOP on 3D skin model; compared to control; concentration-dependent; FIGS. 11-12
Method: as §1, §2, §3, §4

ceramide = assay: Amount of ceramide in 3D skin model by immunofluorescence; settings: Experimental Example 4; creams including 0.01% and 0.1% of EOP on 3D skin model; compared to control; FIGS. 11-12
Method: as §2, with “minutes. Then, the slides were treated with xylene for 15 minutes, 100% ethanol for 5 minutes, 95% ethanol for 5 minutes, and 70% ethanol for 5 minutes, and washed with tap water. Antigen retrieval was carried out by boiling for 10 minutes in citrate buffer in a cooker, followed by cooling in running water. After treatment with 0.5% Triton X-100 for 15 minutes, the slides were washed three times with PBS buffer for 5 minutes.” for “minutes.”
The moisturizing and barrier factors were analyzed by immunofluorescence in the same manner as in Experimental Example 1, and the results thereof are illustrated in FIGS. 11 and 12.

ceramide EOP
increased: amount of aquaporin 3 (aquaporin 3) | amount of filaggrin (filaggrin) | amount of ceramide (ceramide)
